Measured values taken from patent US20140343128A1, “Combination of a phosphoinositide 3-kinase inhibitor and a modulator of the Janus Kinase 2 - Signal Transducer and Activator of Transcription 5 pathway” (NOVARTIS FORSCHUNGSSTIFTUNG, ZWEIGNIEDERLASSUNG FRIEDRICH …, priority 2011, published 2014).

How the values were obtained:
[1] = system: pJAK2, pSTAT5, pSTAT3; assay: Time-course immunoblots/ELISA of JAK2/STAT crosstalk in breast cancer lines in vitro; format: cell-based, human, mouse; settings: for Start of JAK2 activation (pJAK2/pSTAT5 upregulation) after adding the compound: single PI3K or mTOR inhibition, in vitro time course; for pJAK2 and pSTAT5 (JAK2/STAT5 activation) in vitro: after 4 hours-8 hours of treatment
[2] = system: pJAK2/JAK2; assay: pJAK2/JAK2 ELISA in BEZ-treated human breast cancer cell lines; format: cell-based; settings: 300 nM BEZ, 8 h, relative to DMSO
[3] = system: pJAK2/JAK2; assay: pJAK2/JAK2 ELISA in BEZ-treated Balb/c mouse breast cancer lines; format: cell-based; settings: 300 nM BEZ, 8 h, relative to DMSO
[4] = system: pSTAT5/STAT5; assay: pSTAT5/STAT5 immunoblotting with densitometry in BEZ-treated human breast cancer cell lines; format: cell-based; settings: 300 nM BEZ, 8 h, relative to DMSO
[5] = system: pSTAT5/STAT5; assay: pSTAT5/STAT5 immunoblotting with densitometry in BEZ-treated Balb/c mouse breast cancer lines; format: cell-based; settings: 300 nM BEZ, 8 h, relative to DMSO
[6] = system: IL-8 secretion; assay: IL-8 secretion ELISA in BEZ-treated breast cancer cell lines; format: cell-based, human; settings: 300 nM BEZ; for IL8 BEZ vs. DMSO: 20 h, relative to DMSO
[7] = system: pAKT, pS6; assay: Time-course immunoblots of target inhibition (pAKT, pS6) in breast cancer lines; format: cell-based, human, mouse; settings: MDA 468, MDA 231 LM2 and 4T-1 lines; single dose; up to 20 hours after treatment
[8] = system: pJAK2, pSTAT5; assay: pJAK2/pSTAT5 in xenografts of treated mice; design: species or system SCID/beige mice; settings: 30 mg/kg once, after 8 hours of treatment
Excerpt: (§1) Animal experiments. SCID/beige, SCID/NOD and Balb/c mice (Jackson Labs) were maintained under specific pathogen-free conditions and were used in compliance with protocols approved by the Institutional Animal Care and Use Committees of the FMI, which conform to institutional and national regulatory standards on experimental animal usage. For orthotopical engraftment of breast cancer cell lines, 1×10^6 MDA-MB-468, 1×10^6 MDA-MB-231-LM2 and 0.5×10^6 […] or 4T-1-GFP cells were suspended in a 100-μl mixture of Basement Membrane Matrix Phenol Red-free (BD Biosciences) and PBS 1:1 and injected into the mammary gland 4 or between mammary glands 2 and 3. Primary patient breast tumors were cut into 1 mm×1 mm pieces and transplanted into mammary gland 4. Tumor-bearing mice were randomized based on tumor volume prior to the initiation of treatment, which was initiated when average tumor volume was at least 100 mm^3. […] Tumors were measured every 3 to 4 days with vernier calipers, and tumor volumes were calculated by the formula 0.5×(larger diameter)×(smaller diameter)^2. End point tumor sizes were analyzed for synergism using the formula AB/C<A/C×B/C, where C=tumor volume VHC, A=tumor volume compound 1, B=tumor volume compound 2, AB=tumor volume combination (Clarke, 1997).

[9] = system: IL-8; assay: IL-8 levels in tumors and plasma of treated mice; format: in vivo; settings: mice treated as in FIG. 5
Excerpt: as §1

[10] = system: JAK2/STAT5 and IL-8 secretion; assay: JAK2/STAT5 and IL-8 in primary human triple-negative breast tumor xenografts; format: in vivo, human tumors in immunodeficient mice; settings: 30 mg/kg BEZ, 3-4 days, xenografts in immunodeficient mice
Excerpt: as §1

[11] = system: MDA231 LM2 and 4T-1 tumors; assay: Lung metastasis (metastatic index) in tumor-bearing mice; format: in vivo; settings: mice bearing MDA231 LM2 shJAK2 or shNT tumors treated with BSK
Excerpt: as §1, with “4.” for “4. Tumor-bearing mice were randomized based on tumor volume prior to the initiation of treatment, which was initiated when average tumor volume was at least 100 mm^3.”
Immunohistochemistry. […] Mouse lungs were fixed in Bouin's fixative and visible metastatic lung nodules were counted using a binocular.

## Nc1cc(C(F)(F)F)c(-c2cc(N3CCOCC3)nc(N3CCOCC3)n2)cn1 [COMPOUND C, 5-(2,6-di-morpholin-4-yl-pyrimidin-4-yl)-4-trifluoromethyl-pyridin-2-ylamine]
[1]
  Start of JAK2 activation (pJAK2/pSTAT5 upregulation) after adding the compound: 8 hours

## CO[C@H]1C[C@@H]2CC[C@@H](C)[C@@](O)(O2)C(=O)C(=O)N2CCCC[C@H]2C(=O)O[C@H]([C@H](C)C[C@@H]2CC[C@@H](OCCO)[C@H](OC)C2)CC(=O)[C@H](C)/C=C(\C)[C@@H](O)[C@@H](OC)C(=O)[C@H](C)C[C@H](C)/C=C/C=C/C=C/1C [RAD001, everolimus, reference compound]
[1]
  Start of JAK2 activation (pJAK2/pSTAT5 upregulation) after adding the compound: 4 hours

## Cn1c(=O)n(-c2ccc(C(C)(C)C#N)cc2)c2c3cc(-c4cnc5ccccc5c4)ccc3ncc21 [COMPOUND A, 2-methyl-2-[4-(3-methyl-2-oxo-8-quinolin-3-yl-2,3-dihydro-imidazo[4,5-c]quinolin-1-yl)-phenyl]-propionitrile]
[2]; BT474 cells
  pJAK2/JAK2 BEZ vs. DMSO: 0.95
[2]; BT549 cells
  pJAK2/JAK2 BEZ vs. DMSO: 1.21
[2]; HCC1937 cells
  pJAK2/JAK2 BEZ vs. DMSO: 1.62
[2]; HCC1954 cells
  pJAK2/JAK2 BEZ vs. DMSO: 1.32
[2]; Hs578t cells
  pJAK2/JAK2 BEZ vs. DMSO: 1.18
[2]; MCF7 cells
  pJAK2/JAK2 BEZ vs. DMSO: 0.74
[2]; MCF10A cells
  pJAK2/JAK2 BEZ vs. DMSO: 2.11
[2]; MDA 231 LM2 cells
  pJAK2/JAK2 BEZ vs. DMSO: 2.18
[2]; MDA 231 cells
  pJAK2/JAK2 BEZ vs. DMSO: 1.25
[2]; MDA415 cells
  pJAK2/JAK2 BEZ vs. DMSO: 0.88
[2]; MDA 436 cells
  pJAK2/JAK2 BEZ vs. DMSO: 1.53
[2]; MDA 468 cells
  pJAK2/JAK2 BEZ vs. DMSO: 2.32
[2]; SKBR3 cells
  pJAK2/JAK2 BEZ vs. DMSO: 0.65
[2]; SUM159 cells
  pJAK2/JAK2 BEZ vs. DMSO: 0.92
[2]; T47D cells
  pJAK2/JAK2 BEZ vs. DMSO: 1.05
[2]; ZR75-1 cells
  pJAK2/JAK2 BEZ vs. DMSO: 1.36
[3]; 4T-1 cells
  pJAK2/JAK2 BEZ vs. DMSO: 2.02
[3]; 168FARN cells
  pJAK2/JAK2 BEZ vs. DMSO: 1.74
[4]; BT474 cells
  pSTAT5/STAT5 BEZ vs. DMSO: 1.02
[4]; BT549 cells
  pSTAT5/STAT5 BEZ vs. DMSO: 1.61
[4]; HCC1937 cells
  pSTAT5/STAT5 BEZ vs. DMSO: 1.66
[4]; HCC1954 cells
  pSTAT5/STAT5 BEZ vs. DMSO: 1.05
[4]; Hs578t cells
  pSTAT5/STAT5 BEZ vs. DMSO: 0.96
[4]; MCF7 cells
  pSTAT5/STAT5 BEZ vs. DMSO: 0.92
[4]; MCF10A cells
  pSTAT5/STAT5 BEZ vs. DMSO: 3.21
[4]; MDA 231 LM2 cells
  pSTAT5/STAT5 BEZ vs. DMSO: 2.32
[4]; MDA 231 cells
  pSTAT5/STAT5 BEZ vs. DMSO: 1.58
[4]; MDA 436 cells
  pSTAT5/STAT5 BEZ vs. DMSO: 1.77
[4]; MDA 468 cells
  pSTAT5/STAT5 BEZ vs. DMSO: 2.11
[4]; SKBR3 cells
  pSTAT5/STAT5 BEZ vs. DMSO: 0.82
[4]; SUM159 cells
  pSTAT5/STAT5 BEZ vs. DMSO: 1.09
[4]; T47D cells
  pSTAT5/STAT5 BEZ vs. DMSO: 0.62
[4]; ZR75-1 cells
  pSTAT5/STAT5 BEZ vs. DMSO: 1.62
[5]; 4T-1 cells
  pSTAT5/STAT5 BEZ vs. DMSO: 2.65
[5]; 168FARN cells
  pSTAT5/STAT5 BEZ vs. DMSO: 1.9
[6]; breast cancer cells
  IL-8 secretion in breast cancer: induces
[6]; BT474 cells
  IL8 BEZ vs. DMSO: 0.99
[6]; BT549 cells
  IL8 BEZ vs. DMSO: 1.42
[6]; HCC1937 cells
  IL8 BEZ vs. DMSO: 1.06
[6]; HCC1954 cells
  IL8 BEZ vs. DMSO: 1.22
[6]; Hs578t cells
  IL8 BEZ vs. DMSO: 1.08
[6]; MCF7 cells
  IL8 BEZ vs. DMSO: 0.81
[6]; MCF10A cells
  IL8 BEZ vs. DMSO: 1.23
[6]; MDA 231 LM2 cells
  IL8 BEZ vs. DMSO: 2.04
[6]; MDA 231 cells
  IL8 BEZ vs. DMSO: 1.41
[6]; MDA415 cells
  IL8 BEZ vs. DMSO: 0.91
[6]; MDA 436 cells
  IL8 BEZ vs. DMSO: 1.41
[6]; MDA 468 cells
  IL8 BEZ vs. DMSO: 1.91
[6]; SKBR3 cells
  IL8 BEZ vs. DMSO: 1.01
[6]; SUM159 cells
  IL8 BEZ vs. DMSO: 1.24
[6]; T47D cells
  IL8 BEZ vs. DMSO: 0.71
[6]; ZR75-1 cells
  IL8 BEZ vs. DMSO: 1.55
[7]
  pAKT levels: reduced
  pS6 levels: completely blocked
[1]; 300 nM BEZ
  Pattern of JAK2/STAT5 activation: biphasic activation
[1]; BEZ treatment
  Levels of pSTAT3: largely unaffected
[1]
  pJAK2 and pSTAT5 (JAK2/STAT5 activation) in vitro: activates
[1]; listed as BEZ
  pJAK2 and pSTAT5 (JAK2/STAT5 activation) in vitro: considerable upregulation
[8]
  pJAK2 and pSTAT5 (JAK2/STAT5 activation) in vivo: activates
[8]; listed as BEZ
  pJAK2 and pSTAT5 (JAK2/STAT5 activation) in vivo: considerable upregulation
[9]
  IL-8 secretion in vivo (tumors and plasma): enhanced
[10]
  JAK2/STAT5 and IL-8 secretion in human primary triple-negative breast tumors: activates

## Fc1cc(-c2cccc3ncc(-c4cnn(C5CCNCC5)c4)nc23)cc(F)c1CN1CCOCC1 [COMPOUND D, 8-(3,5-Difluoro-4-morpholin-4-ylmethyl-phenyl)-2-(1-piperidin-4-yl-1H-pyrazol-4-yl)-quinoxaline]
[1]; JAK2 inhibition added to BEZ treatment, MDA 468 cells, 8 h BEZ
  Upregulation of pSTAT5 by BEZ: counteracted
[11]
  Metastasis (metastatic index), BSK alone: reduces
[9]
  IL-8 secretion in vivo (tumors and plasma): reduced
